# In ChEMBL document CHEMBL5608141, “Identification of compartment-specific drug sensitivities in CRC organoid-stroma co-cultures” (2024):
# How the values were obtained:
# Assay type in all cases: functional, Homo sapiens
# Parameters in all cases: dose or concentration left out as unconfirmed
# Colon cancer organoid [1] = test: Identification of compartment-specific drug sensitivities in O06 CRC organoid-stroma F06 CAF co-cultures. Organoid is transduced with Lucferase2-P2A-EGFP lentivirus, fibroblast with Renilla-dsRed lentivirus. Dual-Glo Luciferase assay is used to report viability data.
# Colon cancer organoid [2] = test: Identification of compartment-specific drug sensitivities in O14 CRC organoid-stroma F14 CAF co-cultures. Organoid is transduced with Lucferase2-P2A-EGFP lentivirus, fibroblast with Renilla-dsRed lentivirus. Dual-Glo Luciferase assay is used to report viability data.
# Colon cancer organoid [3] = test: Identification of compartment-specific drug sensitivities in O20 CRC organoid-stroma F20 CAF co-cultures. Organoid is transduced with Lucferase2-P2A-EGFP lentivirus, fibroblast with Renilla-dsRed lentivirus. Dual-Glo Luciferase assay is used to report viability data.
# [4] = Transduced with Lucferase2-P2A-EGFP lentivirus
# [5] = Transduced with Renilla-dsRed lentivirus
Compound,Cell Viability (Colon cancer organoid [1]; [4]),Cell Viability (Colon cancer organoid [1]; [5]),Cell Viability (Colon cancer organoid [2]; [4]),Cell Viability (Colon cancer organoid [2]; [5]),Cell Viability (Colon cancer organoid [3]; [4]),Cell Viability (Colon cancer organoid [3]; [5])
CCN(C(=O)CO)[C@H]1CN(/C(=N\C#N)Nc2cccc(OC(F)F)c2)N=C1c1ccc(Cl)c(Cl)c1,100.328%,102.729%,106.236%,108.187%,98.7267%,141.776%
O=C(N[C@H]1CCCCC/C=C\C2C[C@@]2(C(=O)O)NC(=O)[C@@H]2C[C@@H](Oc3ccncc3)CN2C1=O)OC1CCCC1 (stereo not given in full) [BI 1675],164.286%,81.7525%,118.741%,112.641%,103.036%,110.731%
Cl.Cl.Cl.c1ccc(N2CCN(Cc3nc4ccccc4[nH]3)CC2)nc1,46.7197%,192.419%,99.1029%,116.587%,41.4322%,124.541%
COc1cc(C)c(Sc2cnc(NC(=O)c3ccc(CNC(C)C(C)(C)C)cc3)s2)cc1C(=O)N1CCN(C(C)=O)CC1 (stereo not given),97.8632%,73.4932%,52.0168%,58.5352%,91.6907%,97.5626%
CC(=O)C1=C(C)N(c2cccc(C(F)(F)F)c2)C(=O)N[C@@H]1c1ccc(C#N)nc1 [BAY-678],95.8481%,136.382%,146.251%,119.353%,140.099%,133.591%
COc1cc(-c2cn(C)c(=O)c3cnccc23)c(OC)cc1CN(C)C,79.252%,108.934%,100.672%,88.7606%,61.6023%,139.676%
C[C@H](c1ccc(F)cc1)N(Cc1cccc(C(=O)O)c1)C(=O)c1cnc2ccccc2c1 [PF-05105679],130.848%,113.872%,130.3%,106.537%,143.937%,111.508%
CC(=O)c1cc(-c2ccccc2OCC2CC2)c2ncccn12,107.249%,181.775%,107.478%,95.946%,91.2961%,121.201%
CCCCN(CCCC)C(=O)CN1C[C@@H](c2cc(OC)c3c(c2)OCO3)[C@H](C(=O)O)[C@H]1CC(C)(C)CCC [A-545],84.2855%,55.5874%,148.86%,126.562%,123.099%,97.2502%
CNc1nc(-c2ccc3c(N)n[nH]c3c2)cc(N2C[C@@H](C(=O)NC3CCCCC3)CC[C@H]2C)n1,59.8926%,53.4401%,65.7783%,53.252%,52.0118%,121.574%
CC(C)(C#Cc1ccc(NC(=O)COc2ccccc2C(=O)c2ccccc2)c(Cl)c1)C(=O)O [BI 2439],97.1512%,131.731%,66.7268%,62.0838%,147.968%,100.148%
Cc1ncsc1-c1ccc(CNC(=O)[C@@H]2C[C@@H](O)CN2C(=O)[C@@H](NC(=O)CCCCNC(=O)c2ccc(-c3ccc(N4CCN(C)CC4)c(NC(=O)c4c[nH]c(=O)cc4C(F)(F)F)c3)cc2)C(C)(C)C)cc1,81.8894%,85.2238%,124.425%,102.442%,172.591%,86.697%
CCC(=N\O)/C(C)=C/c1ccc(F)c(C)c1 [A-226],127.527%,100.08%,131.471%,101.092%,93.31%,115.263%
CC(C)S(=O)(=O)c1ccc2nccc(Nc3ccc4scnc4c3)c2c1,84.0973%,95.5761%,128.948%,98.4032%,147.82%,98.2209%
C[C@@H]1CCN(C(=O)CC#N)C[C@@H]1N(C)c1ncnc2[nH]ccc12.O=C(O)CC(O)(CC(=O)O)C(=O)O [TOFACITINIB CITRATE],105.115%,91.9737%,83.3835%,105.446%,113.321%,86.9545%
